Data on one molecule can be found in patent publication US9775844B2, “Heterocyclic compounds and uses thereof” (Infinity Pharmaceuticals, Inc., priority 2014, dated 2017).

One data set is described as follows: Oral exposure in the dog. In kind it is in vivo.
In data set [1] the test system is RANKL driven differentiation of osteoclasts from bone marrow macrophages. Kind of data set: Osteoclast differentiation assay (TRAP staining). Particulars: FIG. 17. It is filed as cell-based, mouse. On the procedure: Bone Marrow Derived Macrophages as Osteoclast Progenitors: Long bones from young C57B6 mice were harvested and bone marrow was extruded by gentle lavage of the bone marrow cavities with a 28 gage needle. The cells were screened, and red blood cells were removed using red blood cell lysis buffer (Sigma). Bone marrow cells were differentiated to macrophages using 20 ng/ml mouse MCSF (RnD systems) for 3 days (RPMI and 20% FCS). The cell were washed with PBS, and lifted with Accutase for 10 minutes.
Osteoclast Differentiation Assay: The bone marrow macrophage cells were plated at 150,000 cells per well in a 96 well plate in a MEM 10% FCS. […] Then 25 ng/ml mouse MCSF with or without mouse RANKL (100 ng/ml, RnD systems) was added for 6 days. Media changes (including drugs) were done at day 3 and day 5. The cells were then fixed and stained with the tartrate resistant acid phosphatase (TRAP) assay kit from Sigma according to the manufactures instructions. TRAP positive cells (osteoclasts and cells undergoing an osteoclastic differentiation) in a transect of the triplicate wells (at 20× […]) were manually counted by going through the widest part of each well.

The test system of data set [2] is LPS induced neutrophil influx in bronchoalveolar lavage fluid. The data set is described as follows: LPS-induced neutrophilia, oral administration. It is filed as in vivo. The note with it: rat, p.o., 4 hours post-LPS challenge, dose dependent. On the procedure:
This study also includes assessment of the exposure to the compounds in plasma and lung tissues.
Ref C is budesonide p.o. The compound was administered p.o. and about 1 hour later, LPS was administered intra-tracheally and plasma was collected. After about 5 hours, plasma and bronchoalveolar lavage samples were collected.

The nature of another data set: Oral exposure in the rat. It is filed as in vivo.
Data set [3] in a line: Hepatocyte stability (Hep t1/2). It is filed as in vitro ADME. Particulars: hepatocytes, all species (incl rat); read-out: M, C, D, H Hep (t1/2, min).
For another data set, the target named is P-GP (P-glycoprotein 1) (Homo sapiens (Human), UniProt P08183). Kind of data set: P-glycoprotein inhibition. It is filed as in vitro ADME. The text has this: Without being bound by a particular theory, the P-gp inhibitor could help maintin levels of the P-gp substrate in tumors overexpressing the P-gp transporter.
Sequence of P-GP (P-glycoprotein 1) (P08183 whole entry, species assumed): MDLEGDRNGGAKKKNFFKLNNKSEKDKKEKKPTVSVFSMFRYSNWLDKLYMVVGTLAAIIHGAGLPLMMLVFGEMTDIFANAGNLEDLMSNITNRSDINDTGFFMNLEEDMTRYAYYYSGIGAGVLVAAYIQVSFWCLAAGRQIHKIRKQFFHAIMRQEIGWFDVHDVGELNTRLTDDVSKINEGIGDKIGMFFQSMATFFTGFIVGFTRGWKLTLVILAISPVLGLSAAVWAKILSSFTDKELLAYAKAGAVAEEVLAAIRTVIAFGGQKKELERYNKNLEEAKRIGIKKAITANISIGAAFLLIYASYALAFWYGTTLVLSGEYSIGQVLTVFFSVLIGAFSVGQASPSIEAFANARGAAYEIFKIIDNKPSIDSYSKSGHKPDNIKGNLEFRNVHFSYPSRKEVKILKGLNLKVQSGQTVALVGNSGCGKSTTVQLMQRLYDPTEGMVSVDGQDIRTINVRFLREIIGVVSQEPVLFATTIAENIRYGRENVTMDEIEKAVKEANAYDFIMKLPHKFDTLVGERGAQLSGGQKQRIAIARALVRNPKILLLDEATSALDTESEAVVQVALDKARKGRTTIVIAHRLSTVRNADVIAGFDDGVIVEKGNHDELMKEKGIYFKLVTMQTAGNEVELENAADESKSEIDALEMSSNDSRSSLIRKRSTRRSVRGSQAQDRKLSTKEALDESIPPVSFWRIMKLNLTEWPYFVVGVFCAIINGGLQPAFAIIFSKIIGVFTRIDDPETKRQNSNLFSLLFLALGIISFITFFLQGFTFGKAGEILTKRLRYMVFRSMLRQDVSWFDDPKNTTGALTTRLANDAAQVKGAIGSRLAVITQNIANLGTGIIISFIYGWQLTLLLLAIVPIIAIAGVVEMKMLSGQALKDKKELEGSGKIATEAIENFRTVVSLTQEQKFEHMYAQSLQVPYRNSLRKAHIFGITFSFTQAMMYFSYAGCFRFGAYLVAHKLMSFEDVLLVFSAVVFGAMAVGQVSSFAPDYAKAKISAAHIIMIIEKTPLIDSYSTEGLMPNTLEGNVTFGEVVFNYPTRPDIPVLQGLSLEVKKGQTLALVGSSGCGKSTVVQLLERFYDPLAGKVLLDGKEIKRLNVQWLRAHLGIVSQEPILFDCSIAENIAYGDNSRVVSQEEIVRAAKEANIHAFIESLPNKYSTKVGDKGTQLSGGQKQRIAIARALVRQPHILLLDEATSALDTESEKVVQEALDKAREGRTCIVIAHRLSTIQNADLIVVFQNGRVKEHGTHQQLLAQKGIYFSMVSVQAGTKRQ
The subject of another data set is LLC tumor brei. The data set is described as follows: Lewis Lung Carcinoma (LLC tumor brei) model. It is filed as in vivo, mouse. The note with it: single agent, FIG. 25A/25B. On the procedure:
Compound BB was tested in the Lewis Lung Carcinoma model, which is known in the art and briefly described hereinabove.
LLC tumor brei model was prepared and injected subcutaneously into a mouse in the hind flank region. The tumor brei was prepared as follows. LL2-Luc tumor cells were grown in culture in DMEM+10% FBS. Cells were implanted @ 1×10^6 cells/100 uL SC in the flank of C57 Albino mice (male) When tumors reached 1000 mm3, tumors were harvested. Only the white, living tissue was harvested. Any material containing visable blood or necrotic area was isolated away from the tumor tissue. Tumor tissue was placed in a Dounce tissue homoginized with 5 mLs of warm DMEM (no FBS). About 1-2 grams of tumor tissue was collected, homogenized, pooled into 50 mL falcon tube, and cells were counted. Cells were spinned @ 12,000 RPM, and FBS was pooled off. Cells were resuspended to equal 1×10^7 cells/mL with sterile PBS. 100 uL of cells/mouse SC at the hind flank region were implanted. This process was repeated one more time before conducting brei tumor efficacy study.

Data set [4] is described as follows: In vitro toxicology studies.
The nature of data set [5]: Expected oral half-life in humans (from animal data). The note with it: human, based on rat, dog, monkey data.
Data set [6] can be described thus: Metabolic stability (microsome stability assay). It is filed as in vitro ADME. On the procedure: The stability of one or more subject compounds is determined according to standard procedures known in the art. For example, stability of one or more subject compounds is established by an in vitro assay. For example, an in vitro microsome stability assay is established that measures stability of one or more subject compounds when reacting with mouse, rat or human microsomes from liver. The microsome reaction with compounds is performed in 1.5 mL Eppendorf tube. Each tube contains 0.1 μL of 10.0 mg/mL NADPH; 75 μL of 20.0 mg/mL mouse, rat or human liver microsome; […] of 0.2 M phosphate buffer, and 425 μL of ddH2O. Negative control (without NADPH) tube contains 75 μL of 20.0 mg/mL mouse, rat or human liver microsome; […] of 0.2 M phosphate buffer, and 525 μL of ddH2O. The reaction is started by adding 1.0 μL of 10.0 mM tested compound. The reaction tubes are incubated at 37° C. 100 μL sample is collected into new Eppendorf tube containing 300 μL cold methanol at 0, 5, 10, 15, 30 and 60 minutes of reaction. Samples are centrifuged at 15,000 rpm to remove protein. Supernatant of centrifuged sample is transferred to new tube. Concentration of stable compound after reaction with microsome in the supernatant is measured by Liquid Chromatography/Mass Spectrometry (LC-MS).
These properties indicate the compound's suitability for in vivo administration.

The test system of the next data set is bone marrow macrophages. The data set is described as follows: RANKL driven differentiation of osteoclasts from bone marrow macrophages. In kind it is cell-based.
For data set [7], the system named is bone marrow cells differentiating into MDSCs. Kind of data set: Myeloid Derived Suppressor Cell differentiation assay. In kind it is cell-based. The note with it: FIG. 24A/24B. On the procedure: A similar experiment was performed on bone marrow cells differentiating into MDSCs.
Data set [8] deals with tumor-associated myeloid cells in LLC tumor brei. Kind of data set: Flow cytometry of tumor-associated myeloid cells, LLC tumor brei model. In kind it is in vivo, mouse. On the procedure: Flow cytometry was performed to obtain a more extensive cellular subset analysis. In particular, the study examined T cell vs. Myeloid cells, Myeloid cell subsets, Regulatory vs. effector T cells, and Tumor markers vs. WBC (e.g., PD-L1 expression on tumor).
Different populations of tumor-associated myeloid cells can be identified by flow cytometry, e.g., monocytic immature myeloid cells (iMC),Granulocytic iMCs/Neutrophils, Tumor Associated Macrophages (TAMs), and Granulocytic MDSCs. The different populations, and panels for detecting MDSCs, are described in Cancer Discovery 2011; 1:54-67. Tumors may vary in their myeloid cell composition.

Consider `C[C@H](NC(=O)c1c(N)nn2cccnc12)c1cc2cccc(C#Cc3cnn(C)c3)c2c(=O)n1-c1ccccc1` [Compound BB], for which the oral exposure entry in the data set “Oral exposure in the dog” and in “Oral exposure in the rat” was “high” throughout. For the same molecule, the “RANKL driven differentiation of osteoclasts (TRAP positive cells)” value in data set [1] is “prevents RANKL driven differentiation of osteoclasts”. Moreover, the “neutrophil in bronchoalveolar lavage fluid (BALF)” value in data set [2] is recorded as “reduced neutrophil”. The half-life in [3] was > 240 min; in data set [5] it was 10 to 13 h. Moreover, the P-GP inhibition entry on P-GP (P-glycoprotein 1) is listed as “appears to be an inhibitor of P-GP”. In addition, the inhibition at 10 µM at P-GP (P-glycoprotein 1) (10 uM, read-out: PGP Inhibition @ 10 uM) came to 98%. The IC50 at P-GP (P-glycoprotein 1) (read-out: PGP Inhibition IC50) was < 1 µM. Also, in the data set on LLC tumor brei, the “tumor growth, Lewis Lung Carcinoma model” value was “single agent activity”. In addition, the “toxicity expected from in vitro toxicology studies” value in data set [4] is recorded as “very low toxicity”. The metabolic stability entry in data set [6] is “high metabolic stability”. Besides, the half-life at 20 µM in data set [6] (liver microsomes, microsomes, all species (incl rat)) is > 2 h. Besides, the “RANKL driven differentiation of osteoclasts” value in the data set with bone marrow macrophages is recorded as “prevents”. Further, the “VEGF and ARG1 in MDSC differentiation assay” value in data set [7] was “suppressed”. The “number of infiltrating TAMs” value in data set [8] (FIG. 38A) is listed as “decreased”. Moreover, the “CD206 staining (M2 polarized suppressive macrophages)” value in data set [8] (FIG. 39) is given as “reduced”.
